SMILES strings stand for the structures. pIC50: −log10 of the molar value.

One test deals with BACE2 enzyme ectodomain (Homo sapiens (Human), UniProt Q9Y5Z0). The test can be described thus: Fluorescent-peptide cleavage assay for BACE2 inhibition. The test is classed as biochemical. To be noted: assay b): fluorescent-peptide cleavage, pH 4.5 (superscript b). As for the experimental part: b) Fluorescent-Peptide Cleavage Assay for BACE2 Inhibition
BACE2 enzyme ectodomain (derived from plasmid “pET17b-T7-hu proBACE2”) was prepared as described in Ostermann et al., “Crystal Structure of Human BACE2 in Complex with a Hydroxyethylamine Transition-state Inhibitor”, Journal of Molecular Biology 2006, 355, 249-261. The pro-enzyme was stored at 4° C. at a concentration of 70 μg/ml.
A fluorescent peptide with the amino acid sequence WS EVNLD AEFRC-MR121 was synthesised and a stock solution of 1.5 mM in DMSO prepared and stored at −20° C. MR121 is a fluorophore with an excitation wavelength of 630 nm and emission wavelength of 695 nm. The MR121 fluorescence is quenched by the N-terminal tryptophan until the peptide is cleaved by BACE2.
Assays were all made in a Corning 384-well black polystyrene non-binding surface microtitre plate with clear flat bottom and using a Plate:Vision (Perkin Elmer) fluorescence reader. To perform the assay an 80 nM solution of BACE2 was prepared in assay buffer (assay buffer is 100 mM Na-acetate; 20 mM EDTA; 0.05% BSA; pH 4.5) and incubated at room temperature for 1 hour to activate the enzyme. 39 μl of the activated BACE2 was placed in each assay well, followed by 1 μl compound to be tested at an appropriate concentration in 100% DMSO. The plate was then mixed and incubated for 10 minutes at room temperature. To start the assay, 10 μl of a 1.5 μM solution fluorescent peptide in assay buffer was added and the fluorescence intensity in the assay mixture measured at 695 nm with an excitation wavelength of 630 nm for 30 minutes.
The assay readout is the rate of change of fluorescence intensity giving a relative measure of BACE2 activity. Small values correspond to high inhibition and larger values to low inhibition. To determine IC50 values (i.e. the concentration inhibiting the enzyme activity by 50%) of the compound for BACE2, typically, 15 assays were made with a range of concentrations chosen empirically to give low, high and intermediate inhibition of the protease. IC50 values were determined using these assay values generated for a range of inhibitor concentrations and the curve fitting software XLfit (IDBS) using the Sigmoidal Dose-Response Model.

The target of test [1] is endogenous cellular BACE2 in the Ins1e rat cell line (Rattus norvegicus (Rat), UniProt Q6IE75). In words: Assay for BACE inhibition by measuring cellular TMEM27 cleavage (ELISA of shed hTMEM27 from INS-TMEM27 cells). Type of test: cell-based. To be noted: assay a): cellular TMEM27 cleavage, INS-TMEM27 cells (superscript a). An outline of the steps:
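Shed human TMEM27 is quantified by ELISA in medium of TetOn INS1e cells after 46 h at 37 °C. Compound is dosed across a concentration range, followed 2 h later by doxycycline induction at 500 ng/ml. Each concentration's readout is curve-fitted to give the EC50.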
For orientation: ELISA stands for enzyme-linked immunosorbent assay.

Chain of endogenous cellular BACE2 in the Ins1e rat cell line (Q6IE75 63-514): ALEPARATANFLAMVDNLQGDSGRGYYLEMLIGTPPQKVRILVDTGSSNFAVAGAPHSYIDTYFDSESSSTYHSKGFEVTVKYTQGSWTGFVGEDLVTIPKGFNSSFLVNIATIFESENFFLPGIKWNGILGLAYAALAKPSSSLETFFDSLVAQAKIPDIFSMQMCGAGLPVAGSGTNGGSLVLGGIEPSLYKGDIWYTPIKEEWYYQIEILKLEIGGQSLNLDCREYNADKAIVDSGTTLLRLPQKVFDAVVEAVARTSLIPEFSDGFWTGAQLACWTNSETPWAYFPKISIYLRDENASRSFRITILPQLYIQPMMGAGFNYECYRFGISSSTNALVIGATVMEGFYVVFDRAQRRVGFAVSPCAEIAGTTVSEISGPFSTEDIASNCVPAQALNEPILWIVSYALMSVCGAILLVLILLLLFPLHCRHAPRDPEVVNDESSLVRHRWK
Chain of BACE2 enzyme ectodomain (Q9Y5Z0 63-473): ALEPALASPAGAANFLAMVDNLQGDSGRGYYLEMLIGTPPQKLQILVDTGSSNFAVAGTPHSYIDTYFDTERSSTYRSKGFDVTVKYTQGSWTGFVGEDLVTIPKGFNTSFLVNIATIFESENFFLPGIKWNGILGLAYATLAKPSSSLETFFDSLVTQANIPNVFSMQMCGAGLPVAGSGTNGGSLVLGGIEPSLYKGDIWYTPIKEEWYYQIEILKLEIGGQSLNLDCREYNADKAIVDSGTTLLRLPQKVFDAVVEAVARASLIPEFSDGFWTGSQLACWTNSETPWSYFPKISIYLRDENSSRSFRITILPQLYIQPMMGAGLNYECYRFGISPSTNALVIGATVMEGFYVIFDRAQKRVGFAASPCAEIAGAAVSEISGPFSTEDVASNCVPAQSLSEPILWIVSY

In general, pIC50 refers to −log10 of the IC50, conventionally taken in molar units. Take `Cc1ccc(Nc2ccc(F)c([C@@]3(C)N=C(N)N(C)C(=O)C3(C)C)c2)cc1C#N` [Example 169, 5-[3-((S)-2-Amino-1,4,5,5-tetramethyl-6-oxo-1,4,5,6-tetrahydro-pyrimidin-4-yl)-4-fluoro-phenylamino]-2-methyl-benzonitrile]: the pIC50 at BACE2 enzyme ectodomain is 6.74.
As for `COc1ccc(Cl)cc1Nc1ccc(F)c([C@@]2(C)N=C(N)N(C)C(=O)C2(C)C)c1` [Example 150, (S)-2-Amino-6-(5-(5-chloro-2-methoxyphenylamino)-2-fluorophenyl)-3,5,5,6-tetramethyl-5,6-dihydropyrimidin-4(3H)-one], at BACE2 enzyme ectodomain, the pIC50 was 7.68.
On the same count and under the same terms, the same measure for `CN1C(=O)C(C)(C)[C@@](C)(c2cc(Nc3ccc(C#N)cc3Cl)ccc2F)N=C1N` [Example 168, 4-[3-((S)-2-Amino-1,4,5,5-tetramethyl-6-oxo-1,4,5,6-tetrahydro-pyrimidin-4-yl)-4-fluoro-phenylamino]-3-chloro-benzonitrile]: 7.85.
The same measure, in the same setting: the same measure for `CN1C(=O)C(C)(C)[C@@](C)(c2cc(Nc3cccc(C#N)c3)ccc2F)N=C1N` [Example 167, 3-[3-((S)-2-Amino-1,4,5,5-tetramethyl-6-oxo-1,4,5,6-tetrahydro-pyrimidin-4-yl)-4-fluoro-phenylamino]-benzonitrile]: 7.14.
At BACE2 enzyme ectodomain, `CN1C(=O)C(C)(C)[C@@](C)(c2cc(Nc3ccc(C#N)cc3C(F)(F)F)ccc2F)N=C1N` [Example 163, (S)-4-(3-(2-Amino-1,4,5,5-tetramethyl-6-oxo-1,4,5,6-tetrahydropyrimidin-4-yl)-4-fluorophenylamino)-3-(trifluoromethyl)benzonitrile] showed a pIC50 of 7.21.
The same measure, in the same setting: the same measure for `CN1C(=O)C(C)(C)[C@@](C)(c2cc(Nc3ccc(C#N)cc3OC(F)(F)F)ccc2F)N=C1N` [Example 161, (S)-4-(3-(2-Amino-1,4,5,5-tetramethyl-6-oxo-1,4,5,6-tetrahydropyrimidin-4-yl)-4-fluorophenylamino)-3-(trifluoromethoxy)benzonitrile]: 7.89; for `CN1C(=O)C(C)(C)[C@@](C)(c2cc(Nc3cncc(F)c3)ccc2F)N=C1N` [Example 174, (S)-2-Amino-6-(2-fluoro-5-(5-fluoropyridin-3-ylamino)phenyl)-3,5,5,6-tetramethyl-5,6-dihydropyrimidin-4(3H)-one]: 6.82; for `CN1C(=O)C(C)(C)[C@@](C)(c2cc(Nc3ccc(C(F)(F)F)nc3)ccc2F)N=C1N` [Example 173, (S)-2-Amino-6-(2-fluoro-5-(6-(trifluoromethyl)pyridin-3-ylamino)phenyl)-3,5,5,6-tetramethyl-5,6-dihydropyrimidin-4(3H)-one]: 6.40.
The molecule `CN1C(=O)C(C)(C)[C@@](C)(c2cc(Nc3cc(C#N)ccc3F)ccc2F)N=C1N` [Example 165, (S)-3-(3-(2-Amino-1,4,5,5-tetramethyl-6-oxo-1,4,5,6-tetrahydropyrimidin-4-yl)-4-fluorophenylamino)-4-fluorobenzonitrile] gave a negative logarithm of the IC50 (pIC50) against BACE2 enzyme ectodomain of 7.41.
Still for that read-out and setting: the same measure for `COc1ccc(Nc2ccc(F)c([C@@]3(C)N=C(N)N(C)C(=O)C3(C)C)c2)cn1` [Example 170, (S)-2-Amino-6-(2-fluoro-5-(6-methoxypyridin-3-ylamino)phenyl)-3,5,5,6-tetramethyl-5,6-dihydropyrimidin-4(3H)-one]: 6.85; for `CC(C)C(=O)Nc1ccc(F)c([C@@]2(C)N=C(N)N(C)C(=O)C2(C)C)c1` [Example 151, N-[3-((S)-2-Amino-1,4,5,5-tetramethyl-6-oxo-1,4,5,6-tetrahydro-pyrimidin-4-yl)-4-fluoro-phenyl]-isobutyramide]: 7.00.
`COc1cc(Cl)c(C)cc1Nc1ccc(F)c([C@@]2(C)N=C(N)N(C)C(=O)C2(C)C)c1` [Example 154, (S)-2-Amino-6-(5-(4-chloro-2-methoxy-5-methylphenylamino)-2-fluorophenyl)-3,5,5,6-tetramethyl-5,6-dihydropyrimidin-4(3H)-one]: the negative logarithm of the IC50 (pIC50) on BACE2 enzyme ectodomain was 7.46.
On the same count and under the same terms, the same measure for `Cc1ccc(Nc2ccc(F)c([C@@]3(C)N=C(N)N(C)C(=O)C3(C)C)c2)cn1` [Example 171, (S)-2-Amino-6-(2-fluoro-5-(6-methylpyridin-3-ylamino)phenyl)-3,5,5,6-tetramethyl-5,6-dihydropyrimidin-4(3H)-one]: 5.74; for `CN1C(=O)C(C)(C)[C@@](C)(c2cc(Nc3ccc(C#N)cc3)ccc2F)N=C1N` [Example 153, (S)-4-(3-(2-Amino-1,4,5,5-tetramethyl-6-oxo-1,4,5,6-tetrahydropyrimidin-4-yl)-4-fluorophenylamino)benzonitrile]: 6.89; for `CN1C(=O)C(C)(C)[C@@](C)(c2cc(Nc3ccc(OCC(F)(F)F)nc3)ccc2F)N=C1N` [Example 172, (S)-2-Amino-6-(2-fluoro-5-(6-(2,2,2-trifluoroethoxy)pyridin-3-ylamino)phenyl)-3,5,5,6-tetramethyl-5,6-dihydropyrimidin-4(3H)-one]: 6.96.
In test [1], `CC1OCCC1Nc1ccc(F)c([C@@]2(C)N=C(N)N(C)C(=O)C2(C)C)c1` (stereo partly drawn) [Example 34, (6S)-2-Amino-6-(2-fluoro-5-(2-methyltetrahydrofuran-3-ylamino)phenyl)-3,5,5,6-tetramethyl-5,6-dihydropyrimidin-4(3H)-one] gave a negative-log IC50 (pIC50) of 8.10.
`CC[C@H]1C(=O)N(C)C(N)=N[C@]1(C)c1cccc(NC(=O)C2(C(F)(F)F)CC2)c1` [Example 11, 1-Trifluoromethyl-cyclopropanecarboxylic acid [3-((4S,5R)-2-amino-5-ethyl-1,4-dimethyl-6-oxo-1,4,5,6-tetrahydro-pyrimidin-4-yl)-phenyl]-amide]: in test [1], the negative logarithm of the IC50 (pIC50) was 7.85.
The same measure, in the same setting: the same measure for `Cc1cc(Nc2ccc(F)c([C@@]3(C)N=C(N)N(C)C(=O)C3(C)C)c2)n(C)n1` [Example 39, (S)-2-Amino-6-[5-(2,5-dimethyl-2H-pyrazol-3-ylamino)-2-fluoro-phenyl]-3,5,5,6-tetramethyl-5,6-dihydro-3H-pyrimidin-4-one]: 6.63; for `COC(=O)CC1CCC(Nc2ccc(F)c([C@@]3(C)N=C(N)N(C)C(=O)C3(C)C)c2)C1` (stereo partly drawn) [Example 95, {3-[3-((S)-2-Amino-1,4,5,5-tetramethyl-6-oxo-1,4,5,6-tetrahydro-pyrimidin-4-yl)-4-fluoro-phenylamino]-cyclopentyl}-acetic acid methyl ester]: 6.39.
`CN1C(=O)C(C)(C)[C@@](C)(c2cc(NC3CC(C)(C)CC3O)ccc2F)N=C1N` (stereo partly drawn) [Example 158, (S)-2-Amino-6-[2-fluoro-5-(2-hydroxy-4,4-dimethyl-cyclopentylamino)-phenyl]-3,5,5,6-tetramethyl-5,6-dihydro-3H-pyrimidin-4-one] gave a negative-log IC50 (pIC50) in test [1] of 6.53.
Still for that read-out and setting: the same measure for `COc1cc(C(F)(F)F)ccc1Nc1ccc(F)c([C@@]2(C)N=C(N)N(C)C(=O)C2(C)C)c1` [Example 94, (S)-2-Amino-6-[2-fluoro-5-(2-methoxy-(4-trifluoromethyl)-phenylamino)-phenyl]-3,5,5,6-tetramethyl-5,6-dihydro-3H-pyrimidin-4-one]: 6.15.
On the same count and under the same terms, the same measure for `CN1C(=O)C(C)(C)[C@@](C)(c2cc(NC(=O)C(F)(F)C(F)(F)F)ccc2F)N=C1N` [Example 6, N-[3-((S)-2-Amino-1,4,5,5-tetramethyl-6-oxo-1,4,5,6-tetrahydro-pyrimidin-4-yl)-4-fluoro-phenyl]-2,2,3,3,3-pentafluoro-propionamide]: 6.46.

Source of the values: patent US8815881B2 (Hoffmann-La Roche Inc., priority 2010, dated 2014).
